Experimental findings from patent publication US9139577B2, “Sulfoximine substituted quinazolines for pharmaceutical compositions” (Boehringer Ingelheim International GmbH, priority 2013, dated 2015) are described below.

The target of assay [1] is MNK1 (Homo sapiens (Human), UniProt Q9BUB5). Description: MNK1 in vitro kinase assay (Assay 3), Z'-LYTE. Format: biochemical. As to conditions: for inhibition at 1 µM: compound concentration of 1 μM, read-out: MNK1 % INH. The text has this: C. MNK1 In vitro Kinase Assay (Assay 3)
MNK1, sequence (Q9BUB5 other isoform, or with tags, fused parts or gaps): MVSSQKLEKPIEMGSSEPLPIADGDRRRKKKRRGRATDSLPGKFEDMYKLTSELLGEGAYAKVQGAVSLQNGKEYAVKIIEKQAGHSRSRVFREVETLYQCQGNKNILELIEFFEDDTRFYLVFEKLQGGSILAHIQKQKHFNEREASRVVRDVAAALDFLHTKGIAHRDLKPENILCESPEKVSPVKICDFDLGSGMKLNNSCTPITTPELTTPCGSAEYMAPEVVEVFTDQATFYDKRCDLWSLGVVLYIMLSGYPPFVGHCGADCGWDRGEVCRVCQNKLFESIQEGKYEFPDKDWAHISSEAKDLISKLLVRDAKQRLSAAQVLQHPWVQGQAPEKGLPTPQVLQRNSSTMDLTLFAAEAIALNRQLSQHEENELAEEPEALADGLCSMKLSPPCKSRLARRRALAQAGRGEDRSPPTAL
MNK1 Data can be obtained from the MNK1 Z′-LYTE® assay. The MNK1 Z′-LYTE® screening protocol and assay conditions are also described on www.invitrogen.com.
The assay is described as follows:
The Z′-LYTE® biochemical assay employs a fluorescence-based, coupled-enzyme format and is based on the differential sensitivity of phosphorylated and non-phosphorylated peptides to proteolytic cleavage. The peptide substrate is labeled with two fluorophores—one at each end—that make up a FRET pair.
In the primary reaction, the kinase transfers the gamma-phosphate of ATP to a single tyrosine, serine or threonine residue in a synthetic FRET-peptide. In the secondary reaction, a site-specific protease recognizes and cleaves non-phosphorylated FRET-peptides. Phosphorylation of FRET-peptides suppresses cleavage by the Development Reagent. Cleavage disrupts FRET between the donor (i.e., coumarin) and acceptor (i.e., fluorescein) fluorophores on the FRET-peptide, whereas uncleaved, phosphorylated FRET-peptides maintain FRET. A ratiometric method, which calculates the ratio (the Emission Ratio) of donor emission to acceptor emission after excitation of the donor fluorophore at 400 nm, is used to quantitate reaction progress, as shown in the equation below.
ASSAY SETUP: The inhibition of kinase activity of MNK1a was assessed using pre-activated GST-MNK1a. The 2×MKNK1 (MNK1) mixture is prepared in 50 mM HEPES pH 7.5, 0.01% BRIJ-35, 10 mM MgCl2, 4 mM MnCl2, 1 mM EGTA, 2 mM DTT.
The Test Compounds are screened in 1% DMSO (final) in the well.
All Peptide/Kinase Mixtures are diluted to a 2× working concentration in the MNK1 Kinase Buffer.
All ATP Solutions are diluted to a 4× working concentration in Kinase Buffer (50 mM HEPES pH 7.5, 0.01% BRIJ-35, 10 mM MgCl2, 1 mM EGTA).
Development Reagent Solution:
The Development Reagent is diluted in Development Buffer
1. 2.5 μL—4× Test Compound
2. 5 μL—2× Peptide/Kinase Mixture
5. 60-minute Kinase Reaction incubation at room temperature
6. 5 μl—Development Reagent Solution
8. 60-minute Development Reaction incubation at room temperature
9. Read on fluorescence plate reader and analyze the data
The following equations are used for each set of data points: […]
Correction for Background Fluorescence: FlSample-FlTCFl Ctl
% Phosphorylation (% Phos): 1−((Emission Ratio×F100%)−C100%)/((C0%−C100%)+[Emission Ratio×(F100%−F0%)])*100%
% Inhibition: 1−(% PhosSample/% Phos0% Inhibition Ctl)*100
Fl=Fluorescence Intensity
C100%=Average Coumarin emission signal of the 100% Phos. Control
C0%=Average Coumarin emission signal of the 0% Phos. Control
F100%=Average Fluorescein emission signal of the 100% Phos. Control
F0%=Average Fluorescein emission signal of the 0% Phos. Control
SelectScreen® Kinase Profiling Service uses XLfit from IDBS.

The target in assay [2] is MNK2a (Homo sapiens (Human), UniProt Q9HBH9). Description: MNK2a in vitro kinase assay (Assay 2), ADP-Glo. In kind it is biochemical. As to conditions: read-out: MNK2 IC50.
MNK2a, sequence (Q9HBH9 whole entry): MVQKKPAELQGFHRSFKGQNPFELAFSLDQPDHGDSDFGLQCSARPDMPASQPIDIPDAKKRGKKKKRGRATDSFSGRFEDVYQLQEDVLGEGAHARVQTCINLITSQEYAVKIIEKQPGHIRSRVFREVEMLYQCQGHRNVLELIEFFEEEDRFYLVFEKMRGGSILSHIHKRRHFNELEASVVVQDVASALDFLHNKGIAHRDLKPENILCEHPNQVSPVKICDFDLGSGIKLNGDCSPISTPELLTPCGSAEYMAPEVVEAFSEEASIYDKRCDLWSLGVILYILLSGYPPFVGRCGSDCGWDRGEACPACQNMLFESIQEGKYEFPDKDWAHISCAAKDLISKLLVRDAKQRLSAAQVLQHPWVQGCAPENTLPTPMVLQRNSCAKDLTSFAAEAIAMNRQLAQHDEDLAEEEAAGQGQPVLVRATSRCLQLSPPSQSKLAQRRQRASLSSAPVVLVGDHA

Usually IC50 stands for the concentration that gives 50% inhibition. On to `Cc1cc([C@@H](C)Oc2ncccc2Nc2ncnc3cc(N=S4(=O)CCCC4)cc(C)c23)on1` [Example 2.009], for which the IC50 turned out to be 49 nM in assay [1] and 1 nM in assay [2].
Take `Cc1cc(N=S(C)(C)=O)cc2ncnc(Nc3ccc(F)cc3OC(C)C(C)(C)C#N)c12` (centres unmarked) [Example 2.010]: in assay [1], the inhibition at 1 µM is 76%. Besides, in assay [2], the IC50 stood at 11 nM.
The like results for `Cc1cc(N=S(C)(C)=O)cc2ncnc(Nc3ccc(F)cc3OC(C)C)c12` [Example 2.011] were, in that order, 94% and 2 nM.
In the case of `Cc1cc([C@@H](C)Oc2cc(F)ccc2Nc2ncnc3cc(N=S4(=O)CCCC4)cc(C)c23)on1` [Example 2.012], the inhibition at 1 µM in assay [1] was 102%. Moreover, the IC50 in assay [2] amounted to 28 nM.
As to `Cc1cc([C@@H](C)Oc2cc(F)ccc2Nc2ncnc3cc(N=S4(=O)CCCC4)cc(Cl)c23)on1` [Example 2.014], in assay [1], the inhibition at 1 µM came to 99%. Besides, the IC50 in assay [2] is 2 nM.
As to `Cc1cc(N=S(C)(C)=O)cc2ncnc(Nc3cccnc3OC(C)C)c12` [Example 2.017], in assay [1], the inhibition at 1 µM amounted to 90%. In addition, the IC50 in assay [2] turned out to be 2 nM.
In the case of `Cc1cc([C@@H](C)Oc2ncccc2Nc2ncnc3cc(N=S(C)(C)=O)cc(C)c23)on1` [Example 2.018], the figures for the IC50 in assay [1] and in assay [2] were 34 nM and 1 nM, respectively.
The like results for `Cc1cc(N=S2(=O)CCCC2)cc2ncnc(Nc3ccc(F)cc3O[C@H](C)C(F)(F)F)c12` [Example 2.048] were, in that order, 40 nM and 2 nM.
In the same order, the values of `Cc1cc(N=S(C)(C)=O)cc2ncnc(Nc3ccc(F)cc3OC(CF)CF)c12` [Example 3.001] are 60 nM and 2 nM.
Turning to `Cc1cc(N=S(C)(C)=O)cc2ncnc(Nc3ccc(F)cc3OC(C)c3ncco3)c12` (centres unmarked) [Example 3.002], the inhibition at 1 µM in assay [1] came out at 80%. For the same molecule, in assay [2], the IC50 is 8 nM.
`Cc1cc(N=S(C)(C)=O)cc2ncnc(Nc3ccc(F)cc3OC[C@H]3CNC(=O)O3)c12` [Example 3.003]: the inhibition at 1 µM in assay [1] was 73%. The IC50 in assay [2] was found to be 2 nM.
In the same order, the values of `Cc1cc(N=S(C)(C)=O)cc2ncnc(Nc3ccc(F)cc3OCC3CCCCO3)c12` (centres unmarked) [Example 3.006] are 70% and 1 nM.
The like results for `Cc1cc(N=S(C)(C)=O)cc2ncnc(Nc3ccc(F)cc3OC(C)c3cccnc3)c12` (centres unmarked) [Example 3.007] were, in that order, 96% and 9 nM.
Regarding `Cc1cc(N=S(C)(C)=O)cc2ncnc(Nc3ccc(F)cc3OCC3CC3(F)F)c12` (centres unmarked) [Example 3.008], the inhibition at 1 µM in assay [1] turned out to be 89%. Besides, the IC50 in assay [2] is 5 nM.
In the same order, the values of `Cc1cc(COc2cc(F)ccc2Nc2ncnc3cc(N=S(C)(C)=O)cc(C)c23)no1` [Example 3.009] are 95% and 7 nM.
The like results for `CCOC(=O)[C@@H](C)Oc1cc(F)ccc1Nc1ncnc2cc(N=S3(=O)CCCC3)cc(C)c12` [Example 3.012] were, in that order, 100% and 23 nM.
On to `Cc1cc(N=S(C)(C)=O)cc2ncnc(Nc3ccc(F)cc3OCC3CCO3)c12` (centres unmarked) [Example 3.013], for which the inhibition at 1 µM in assay [1] amounted to 88%. Also, the IC50 in assay [2] turned out to be 8 nM.
Regarding `Cc1cc(N=S(C)(C)=O)cc2ncnc(Nc3ccc(F)cc3OCC3(C#N)CCC3)c12` [Example 3.014], in assay [1], the inhibition at 1 µM worked out at 78%. The IC50 in assay [2] is 8 nM.
In the same order, the values of `Cc1cc(N=S(C)(C)=O)cc2ncnc(Nc3ccc(F)cc3OC(C)Cn3ccnc3C)c12` (centres unmarked) [Example 3.015] are 45% and 3 nM.
In the case of `C#CC(C)Oc1cc(F)ccc1Nc1ncnc2cc(N=S(C)(C)=O)cc(C)c12` (centres unmarked) [Example 3.016], the inhibition at 1 µM in assay [1] was determined as 90%. Moreover, the IC50 in assay [2] is 2 nM.
In the same order, the values of `Cc1cc(N=S(C)(C)=O)cc2ncnc(Nc3ccc(F)cc3O[C@H](C)CN)c12` [Example 3.018] are 92% and 1 nM.
On to `Cc1cc(N=S(C)(C)=O)cc2ncnc(Nc3ccc(F)cc3OC(C)CC3CCOCC3)c12` (centres unmarked) [Example 3.019], for which the inhibition at 1 µM in assay [1] stood at 48%. Also, in assay [2], the IC50 turned out to be 24 nM.
The like results for `Cc1cc(N=S(C)(C)=O)cc2ncnc(Nc3ccc(F)cc3OC(C)c3ccccn3)c12` (centres unmarked) [Example 3.021] were, in that order, 86% and 2 nM.
`CCOC(=O)[C@@H](C)Oc1cc(F)ccc1Nc1ncnc2cc(N=S(C)(C)=O)cc(C)c12` [Example 3.022]: the inhibition at 1 µM in assay [1] was 98%. In addition, the IC50 in assay [2] was 2 nM.
As to `Cc1cc(N=S(C)(C)=O)cc2ncnc(Nc3ccc(F)cc3OCC(=O)N(C)C)c12` [Example 3.026], in assay [1], the inhibition at 1 µM came to 53%. Moreover, the IC50 in assay [2] was 4 nM.
In the same order, the values of `Cc1cc(N=S(C)(C)=O)cc2ncnc(Nc3ccc(F)cc3OCC3(C(F)(F)F)CC3)c12` [Example 3.027] are 98% and 2 nM.
As to `Cc1cc(N=S(C)(C)=O)cc2ncnc(Nc3ccc(F)cc3OC(C)COC3CCOC3)c12` (centres unmarked) [Example 3.028], the inhibition at 1 µM in assay [1] is 92%. Also, in assay [2], the IC50 turned out to be 6 nM.
For the molecule `Cc1cc(N=S(C)(C)=O)cc2ncnc(Nc3ccc(F)cc3OCC3(C)COC3)c12` [Example 3.029], the inhibition at 1 µM in assay [1] was 72%. Moreover, the IC50 in assay [2] was found to be 17 nM.
With `Cc1cc(N=S(C)(C)=O)cc2ncnc(Nc3ccc(F)cc3OCCC(F)(F)F)c12` [Example 3.031], the IC50 was 75 nM in assay [1] and 5 nM in assay [2].
Turning to `CCOC(=O)[C@H](C)Oc1cc(F)ccc1Nc1ncnc2cc(N=S(C)(C)=O)cc(C)c12` [Example 3.032], in assay [1], the inhibition at 1 µM stood at 26%. For the same molecule, in assay [2], the IC50 was determined as 16 nM.
Consider `Cc1cc(N=S(C)(C)=O)cc2ncnc(Nc3ccc(F)cc3OCC3CCNC(=O)C3)c12` (centres unmarked) [Example 3.033], for which the inhibition at 1 µM in assay [1] was 56%. The IC50 in assay [2] is 2 nM.
Regarding `Cc1cc(N=S(C)(C)=O)cc2ncnc(Nc3ccc(F)cc3OC(C)c3nccs3)c12` (centres unmarked) [Example 3.035], the inhibition at 1 µM in assay [1] worked out at 89%. In addition, the IC50 in assay [2] was 37 nM.
For `Cc1cc(N=S(C)(C)=O)cc2ncnc(Nc3ccc(F)cc3OC[C@H]3CCC(=O)N3)c12` [Example 3.038], the inhibition at 1 µM in assay [1] stood at 86%. In addition, the IC50 in assay [2] is 2 nM.
For the molecule `Cc1cc(N=S(C)(C)=O)cc2ncnc(Nc3ccc(F)cc3OCc3ccon3)c12` [Example 3.039], the results for the IC50 in assay [1] and in assay [2] were 77 nM and 1 nM, respectively.
`CCC(C)Oc1cc(F)ccc1Nc1ncnc2cc(N=S(C)(C)=O)cc(C)c12` (centres unmarked) [Example 3.042]: in assay [1], the inhibition at 1 µM is 78%. Also, the IC50 in assay [2] stood at 15 nM.
`Cc1cc(N=S(C)(C)=O)cc2ncnc(Nc3ccc(F)cc3OC[C@@H]3CCC(=O)N3)c12` [Example 3.043]: the inhibition at 1 µM in assay [1] came to 82%. Besides, the IC50 in assay [2] was determined as 5 nM.
In the same order, the values of `Cc1cc(N=S(C)(C)=O)cc2ncnc(Nc3ccc(F)cc3OCC3COCCO3)c12` (centres unmarked) [Example 3.044] are 49% and 63 nM.
The like results for `Cc1cc(N=S(C)(C)=O)cc2ncnc(Nc3ccc(F)cc3OCC3CCOCC3)c12` [Example 3.045] were, in that order, 78% and 10 nM.
The like results for `Cc1cc(N=S(C)(C)=O)cc2ncnc(Nc3ccc(F)cc3OC(C)c3ccncc3)c12` (centres unmarked) [Example 3.046] were, in that order, 97% and 2 nM.
For the molecule `C[C@@H](Oc1cc(F)ccc1Nc1ncnc2cc(N=S3(=O)CCCC3)cc(F)c12)C(=O)NCC(F)(F)F` [Example 3.047], the inhibition at 1 µM in assay [1] was determined as 96%. Also, in assay [2], the IC50 worked out at 1 nM.
For the molecule `Cc1cc(N=S(C)(C)=O)cc2ncnc(Nc3ccc(F)cc3OCC3CCOC3)c12` (centres unmarked) [Example 3.048], the inhibition at 1 µM in assay [1] came to 88%. The IC50 in assay [2] came to 11 nM.
On to `C[C@@H](Oc1cc(F)ccc1Nc1ncnc2cc(N=S(C)(C)=O)cc(F)c12)C(=O)NCC(F)(F)F` [Example 3.049], for which the IC50 in assay [1] came out at 68 nM; in assay [2], 2 nM.
Turning to `COCC(C)Oc1cc(F)ccc1Nc1ncnc2cc(N=S(C)(C)=O)cc(C)c12` (centres unmarked) [Example 3.050], the inhibition at 1 µM in assay [1] is 87%. Besides, the IC50 in assay [2] stood at 32 nM.
